Source: ChEMBL document CHEMBL3632504, “Discovery of 1H-pyrazolo[3,4-b]pyridines as potent dual orexin receptor antagonists (DORAs)” (Bioorg Med Chem Lett, 2015)
≈ marks a conversion by molar mass, not a printed value. Values belong to the compound of their own block, whether it stands above or below them.

Columns and labels:
Homo sapiens = organism: Homo sapiens; experiment: Selectivity ratio of Ki for human orexin 1 receptor to Ki for human orexin 2 receptor
[1] = biological target: T1, Orexin/Hypocretin receptor type 1 (Homo sapiens, UniProt O43613)
T1 sequence (O43613 whole entry): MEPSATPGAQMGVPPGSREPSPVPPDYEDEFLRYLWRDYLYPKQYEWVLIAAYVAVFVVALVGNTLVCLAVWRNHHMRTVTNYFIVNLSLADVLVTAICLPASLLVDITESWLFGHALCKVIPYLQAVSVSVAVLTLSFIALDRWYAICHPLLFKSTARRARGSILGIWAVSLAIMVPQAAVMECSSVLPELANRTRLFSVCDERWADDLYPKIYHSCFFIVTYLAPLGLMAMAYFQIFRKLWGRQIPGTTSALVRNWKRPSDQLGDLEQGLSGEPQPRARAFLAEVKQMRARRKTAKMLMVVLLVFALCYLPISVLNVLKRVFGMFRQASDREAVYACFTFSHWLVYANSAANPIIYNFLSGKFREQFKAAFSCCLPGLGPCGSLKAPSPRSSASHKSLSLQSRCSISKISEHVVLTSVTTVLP
Description: Antagonist activity against human orexin 1 receptor after 1 hr by Ca2+ sensitive Fluo4-AM fluorescent dye-based FLIPR assay

Orexin receptor type 2 [2] = biological target: T2, Orexin receptor type 2 (Homo sapiens, UniProt O43614); experiment: Antagonist activity against human orexin 2 receptor after 1 hr by Ca2+ sensitive Fluo4-AM fluorescent dye-based FLIPR assay; format: functional
T2 sequence (O43614 whole entry): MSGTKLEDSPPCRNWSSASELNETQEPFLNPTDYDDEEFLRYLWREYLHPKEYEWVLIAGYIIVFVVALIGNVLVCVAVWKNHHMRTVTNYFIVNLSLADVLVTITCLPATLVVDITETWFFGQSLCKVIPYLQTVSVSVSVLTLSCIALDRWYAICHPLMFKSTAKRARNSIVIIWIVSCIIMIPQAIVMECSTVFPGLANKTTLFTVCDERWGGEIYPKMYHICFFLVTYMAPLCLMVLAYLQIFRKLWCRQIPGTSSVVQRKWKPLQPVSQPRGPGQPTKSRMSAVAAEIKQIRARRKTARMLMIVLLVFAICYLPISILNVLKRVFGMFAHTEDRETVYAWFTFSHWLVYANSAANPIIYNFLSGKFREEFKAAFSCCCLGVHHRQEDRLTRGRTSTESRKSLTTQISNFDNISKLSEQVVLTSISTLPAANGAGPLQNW

Orexin receptor type 2 [3] = biological target: T2, Orexin receptor type 2; experiment: Displacement of [125l]orexin A from human orexin 2 receptor expressed in CHO cells after 1 hr; format: cell-based
[4] = biological target: T1, Orexin/Hypocretin receptor type 1; experiment: Displacement of [125l]orexin A from human orexin 1 receptor expressed in CHO cells after 1 hr; format: cell-based
[5] = Octanol/water partition coefficient, logP of the compound; format: physicochemical
[6] = Equilibrium solubility of the compound at pH 6.8; format: physicochemical; conditions: buffer
[7] = Intrinsic clearance in rat liver microsomes; format: ADME; conditions: read-out: CLH
[8] = Drug metabolism in mouse liver microsomes assessed as oxidation at benzylic position of amide; format: ADME
Mus musculus [9] = organism: Mus musculus; experiment: Drug metabolism in mouse assessed as oxidation at benzylic position of amide; format: ADME, organism-based; conditions: in vivo
Liver microsome [10] = experiment: Drug metabolism in human liver microsomes assessed as oxidation at benzylic position of amide; format: ADME
[11] = Drug metabolism in mouse liver microsomes assessed as oxidation at phenyl ring in 3-position of core moiety; format: ADME
Mus musculus [12] = organism: Mus musculus; experiment: Drug metabolism in mouse assessed as oxidation at phenyl ring in 3-position of core moiety; format: ADME, organism-based; conditions: in vivo
Liver microsome [13] = experiment: Drug metabolism in human liver microsomes assessed as oxidation at phenyl ring in 3-position of core moiety; format: ADME
[14] = Terminal half life in mouse at 1 mg/kg, iv administered through cassette dosing; format: ADME, organism-based; conditions: in vivo, read-out: beta t1/2 (converted)
[15] = Blood clearance in mouse at 1 mg/kg, iv administered through cassette dosing; format: ADME, organism-based
[16] = Oral bioavailability in mouse at 3 mg/kg administered through cassette dosing; format: ADME, organism-based; conditions: in vivo
[17] = Volume of distribution at steady state in mouse at 1 mg/kg, iv administered through cassette dosing; format: ADME, organism-based; conditions: in vivo, read-out: Vdss
in vivo = conditions: mouse, brain / blood, po, 3 mg/kg
Description: Ratio of drug level in brain to blood in mouse at 3 mg/kg, po at 1 hr post dose administered through cassette dosing

Blood [18] = experiment: Dose-normalized AUC in mouse blood at 3 mg/kg, po administered through cassette dosing; format: ADME, organism-based; conditions: in vivo
Blood [19] = experiment: Dose-normalized Cmax in mouse blood at 3 mg/kg, po administered through cassette dosing; format: ADME, organism-based; conditions: in vivo
[20] = Plasma protein binding in human; format: ADME, cell-free; conditions: read-out: PPB (converted)
Cytochrome P450 2C9 = Cytochrome P450 2C9 (Homo sapiens, UniProt P11712); experiment: Inhibition of CYP2C9 (unknown origin); format: ADME
Cytochrome P450 2C9, sequence (P11712 whole entry): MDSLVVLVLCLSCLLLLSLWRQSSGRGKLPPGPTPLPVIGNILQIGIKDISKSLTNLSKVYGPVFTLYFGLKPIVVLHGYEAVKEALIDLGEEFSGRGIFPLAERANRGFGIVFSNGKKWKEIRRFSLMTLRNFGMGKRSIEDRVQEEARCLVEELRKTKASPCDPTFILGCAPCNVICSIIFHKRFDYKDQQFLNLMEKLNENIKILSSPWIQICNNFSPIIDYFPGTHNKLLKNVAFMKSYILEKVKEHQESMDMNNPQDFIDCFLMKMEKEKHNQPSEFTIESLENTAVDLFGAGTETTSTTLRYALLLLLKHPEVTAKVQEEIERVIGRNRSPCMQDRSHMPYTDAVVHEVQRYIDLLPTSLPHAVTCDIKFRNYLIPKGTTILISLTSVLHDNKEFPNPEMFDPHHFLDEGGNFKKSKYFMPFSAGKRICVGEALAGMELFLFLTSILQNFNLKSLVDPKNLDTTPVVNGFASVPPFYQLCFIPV

[21] = Permeability of the compound by PAMPA; format: physicochemical
Cytochrome P450 3A4 = Cytochrome P450 3A4 (Homo sapiens, UniProt P08684); experiment: Inhibition of CYP3A4 (unknown origin); format: ADME
Cytochrome P450 3A4, sequence (P08684 whole entry): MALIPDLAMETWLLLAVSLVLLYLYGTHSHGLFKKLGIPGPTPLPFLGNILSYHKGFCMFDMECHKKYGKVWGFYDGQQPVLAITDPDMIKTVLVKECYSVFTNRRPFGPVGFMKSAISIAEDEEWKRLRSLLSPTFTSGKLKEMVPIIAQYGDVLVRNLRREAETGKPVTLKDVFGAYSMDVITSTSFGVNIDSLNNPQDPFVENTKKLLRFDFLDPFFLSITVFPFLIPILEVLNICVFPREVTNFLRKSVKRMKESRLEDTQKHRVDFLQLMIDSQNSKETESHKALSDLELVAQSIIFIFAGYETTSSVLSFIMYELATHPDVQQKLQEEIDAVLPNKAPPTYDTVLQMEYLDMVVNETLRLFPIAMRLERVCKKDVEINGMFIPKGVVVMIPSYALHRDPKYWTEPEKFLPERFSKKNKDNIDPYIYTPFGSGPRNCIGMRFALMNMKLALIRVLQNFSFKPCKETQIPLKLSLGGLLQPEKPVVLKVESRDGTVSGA

[22] = Plasma protein binding in mouse; format: ADME; conditions: read-out: PPB
[23] = Intrinsic clearance in human liver microsomes; format: ADME; conditions: read-out: CLH
Plasma = experiment: Fraction unbound in mouse plasma; format: ADME, cell-free
[24] = Intrinsic clearance in mouse liver microsomes; format: ADME; conditions: read-out: CLH
Cytochrome P450 2D6 = Cytochrome P450 2D6 (Homo sapiens, UniProt P10635); experiment: Inhibition of CYP2D6 (unknown origin); format: ADME
Cytochrome P450 2D6, sequence (P10635 whole entry): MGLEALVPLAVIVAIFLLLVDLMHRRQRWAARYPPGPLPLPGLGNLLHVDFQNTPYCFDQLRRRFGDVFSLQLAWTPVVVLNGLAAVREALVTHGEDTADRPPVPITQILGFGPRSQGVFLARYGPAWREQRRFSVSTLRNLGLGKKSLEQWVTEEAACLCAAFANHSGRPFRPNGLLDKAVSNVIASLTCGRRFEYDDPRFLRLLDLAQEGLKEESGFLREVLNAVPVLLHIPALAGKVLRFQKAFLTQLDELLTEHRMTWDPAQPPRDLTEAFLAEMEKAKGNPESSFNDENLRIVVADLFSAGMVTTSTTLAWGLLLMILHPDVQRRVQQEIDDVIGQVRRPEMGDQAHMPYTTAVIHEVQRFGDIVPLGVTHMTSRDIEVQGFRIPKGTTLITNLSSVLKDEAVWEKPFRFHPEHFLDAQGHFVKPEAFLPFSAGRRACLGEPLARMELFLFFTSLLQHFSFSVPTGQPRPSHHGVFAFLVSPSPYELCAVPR

[25] = biological target: Voltage-gated inwardly rectifying potassium channel KCNH2 (Homo sapiens, UniProt Q12809); experiment: Binding affinity to human ERG
Voltage-gated inwardly rectifying potassium channel KCNH2, sequence (Q12809 whole entry): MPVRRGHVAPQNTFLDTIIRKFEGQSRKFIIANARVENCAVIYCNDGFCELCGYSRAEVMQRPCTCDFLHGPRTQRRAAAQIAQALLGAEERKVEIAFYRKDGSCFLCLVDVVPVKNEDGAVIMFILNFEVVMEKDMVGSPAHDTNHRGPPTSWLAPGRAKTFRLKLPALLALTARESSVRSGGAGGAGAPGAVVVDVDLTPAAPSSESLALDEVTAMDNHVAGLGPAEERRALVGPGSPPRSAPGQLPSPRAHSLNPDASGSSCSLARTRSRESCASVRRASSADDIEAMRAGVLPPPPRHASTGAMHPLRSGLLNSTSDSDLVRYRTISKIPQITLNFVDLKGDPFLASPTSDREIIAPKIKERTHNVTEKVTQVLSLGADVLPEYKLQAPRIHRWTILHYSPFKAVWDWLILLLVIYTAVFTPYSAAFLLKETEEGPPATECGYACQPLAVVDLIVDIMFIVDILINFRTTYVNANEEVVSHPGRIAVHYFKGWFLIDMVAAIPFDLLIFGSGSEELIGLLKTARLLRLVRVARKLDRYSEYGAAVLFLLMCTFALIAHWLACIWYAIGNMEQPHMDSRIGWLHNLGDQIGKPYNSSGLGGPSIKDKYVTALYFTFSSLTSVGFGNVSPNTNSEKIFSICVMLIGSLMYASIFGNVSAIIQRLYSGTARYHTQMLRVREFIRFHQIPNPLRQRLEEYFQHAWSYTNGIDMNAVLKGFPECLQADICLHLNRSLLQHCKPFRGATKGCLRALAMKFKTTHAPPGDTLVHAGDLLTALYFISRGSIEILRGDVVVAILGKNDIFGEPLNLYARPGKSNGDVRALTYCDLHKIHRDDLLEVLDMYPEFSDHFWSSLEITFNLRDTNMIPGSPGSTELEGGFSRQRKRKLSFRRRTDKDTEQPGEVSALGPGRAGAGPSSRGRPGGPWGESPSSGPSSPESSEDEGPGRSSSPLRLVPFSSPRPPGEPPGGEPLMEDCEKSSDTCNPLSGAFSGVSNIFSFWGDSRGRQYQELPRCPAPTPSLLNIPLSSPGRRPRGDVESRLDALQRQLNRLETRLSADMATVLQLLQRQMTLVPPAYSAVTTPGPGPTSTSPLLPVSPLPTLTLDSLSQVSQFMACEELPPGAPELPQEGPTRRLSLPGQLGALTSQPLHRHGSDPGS

MDR1 = experiment: Efflux ratio of permeability from basolateral to apical side over apical to basolateral side in MDCK cells expressing MDR1; format: ADME, cell-based, Canis lupus familiaris; conditions: dog

SMILES: Cc1nn(C)c(C)c1[C@H](C)NC(=O)COc1cc(C(F)(F)F)c2c(-c3ccccc3)nn(C)c2n1
Ki [1]: 7 nM
Ki (Orexin receptor type 2 [2]; read-out: Ki): 10 nM
Ratio Ki (Homo sapiens): 0.7

SMILES: COc1ccc([C@@H](C)NC(=O)COc2cc(C(F)(F)F)c3c(-c4ccccc4)nn(C)c3n2)cc1
Ratio Ki (Homo sapiens): 2.41

SMILES: CC(NC(=O)COc1cc(C(F)(F)F)c2c(-c3ccccc3)nn(C)c2n1)c1ccccc1 (racemic)
Ki [1]: 120 nM
Ki (Orexin receptor type 2 [2]; read-out: Ki): 78 nM
Ki (Orexin receptor type 2 [3]): 168 nM
Ki [4]: 88 nM
Ratio Ki (Homo sapiens): 1.54

SMILES: CC(NC(=O)COc1cc(C(F)(F)F)c2c(-c3ccccc3)nn(C)c2n1)c1ccccn1 (racemic)
Ki (Orexin receptor type 2 [2]): Not Active

SMILES: COc1ccc(C(C)NC(=O)COc2cc(C(F)(F)F)c3c(-c4ccccc4)nn(C)c3n2)cc1 (racemic)
Ratio Ki (Homo sapiens): 14.5

SMILES: Cc1ccc([C@H](C)NC(=O)COc2cc(C)c3c(-c4cnccn4)nn(C)c3n2)cc1
logP [5]: 3.9
solubility thermodynamic [6]: 115 µM (≈ 47.9 µg/mL)

SMILES: Cc1nn(C)c(C)c1C(C)NC(=O)COc1cc(C(F)F)c2c(C3CC3)nn(C)c2n1 (racemic)
microsomal CLint [7]: 660 µL/min/mg
logP [5]: 2.8
solubility thermodynamic [6]: 657 µM (≈ 284 µg/mL)

SMILES: Cc1ccc2c(n1)CC[C@@H]2NC(=O)COc1cc(C)c2c(C3CC3)nn(C)c2n1
half-life [14]: 18 min
clearance [15]: 66 mL/min/kg
bioavailability [16]: 16%
Vd [17]: 0.4 L/kg
Kp at 1 h (in vivo): 0.13
AUC/dose (Blood [18]): 106 nM·h
Cmax/dose (Blood [19]): 115 nM
Ratio Ki (Homo sapiens): 4.95

SMILES: C[C@H](NC(=O)COc1cc(C(F)(F)F)c2c(-c3ccccc3)n[nH]c2n1)c1ccccc1
Ratio Ki (Homo sapiens): 4.65

SMILES: COc1ccc([C@H](C)NC(=O)COc2cc(C(F)(F)F)c3c(-c4ccccc4)nn(C)c3n2)cc1
fraction unbound [20]: < 0.01
IC50 (Cytochrome P450 2C9): 5 µM
half-life [14]: 66 min
clearance [15]: 65 mL/min/kg
log(permeability) [21]: -4
bioavailability [16]: 3%
IC50 (Cytochrome P450 3A4): 8 µM
microsomal CLint [7]: 147 µL/min/mg
logP [5]: 4.6
fraction unbound [22]: < 0.01
microsomal CLint [23]: 190 µL/min/mg
IC50 [25]: > 30 µM
Vd [17]: 2 L/kg
Kp at 1 h (in vivo): 1.15
Ki (Orexin receptor type 2 [3]): 4 nM
Ki [4]: 8 nM
Fu (Plasma): < 1%
microsomal CLint [24]: 478 µL/min/mg
AUC/dose (Blood [18]): 17 nM·h
Cmax/dose (Blood [19]): 4 nM
efflux ratio (MDR1): 1
solubility thermodynamic [6]: < 4 µM
Ratio Ki (Homo sapiens): 7
IC50 (Cytochrome P450 2D6): > 20 µM

SMILES: Cc1ccc([C@H](C)NC(=O)COc2cc(C)c3c(-c4ncccn4)nn(C)c3n2)cc1
Ki (Orexin receptor type 2 [2]; read-out: Ki): 5 nM
logP [5]: 3.3
solubility thermodynamic [6]: 43 µM (≈ 17.9 µg/mL)

Continued, values first:

Ratio Ki (Homo sapiens): 0.31
SMILES: C[C@H](NC(=O)CNc1cc(C(F)(F)F)c2c(-c3ccccc3)nn(C)c2n1)c1ccccc1

Ratio Ki (Homo sapiens): 9.64
SMILES: COc1ccc(CNC(=O)COc2cc(C(F)(F)F)c3c(-c4ccccc4)nn(C)c3n2)cc1

Ratio Ki (Homo sapiens): 0.77
SMILES: COc1cccc(C(C)NC(=O)COc2cc(C(F)(F)F)c3c(-c4ccccc4)nn(C)c3n2)c1 (racemic)

logP [5]: 3.9
solubility thermodynamic [6]: 248 µM (≈ 116 µg/mL)
SMILES: Cc1nn(C)c(C)c1C(C)NC(=O)COc1cc(C(F)F)c2c(-c3ccccc3)nn(C)c2n1 (racemic)

microsomal CLint [7]: 924 µL/min/mg
logP [5]: 3.5
solubility thermodynamic [6]: 25 µM (≈ 9.79 µg/mL)
SMILES: Cc1cc2c(cn1)[C@@H](NC(=O)COc1cc(C)c3c(C4CC4)nn(C)c3n1)CC2

Drug metabolism [8]: metabolite_detected
Drug metabolism (Mus musculus [9]): metabolite_detected
Drug metabolism (Liver microsome [10]): metabolite_detected
logP [5]: 4.7
Drug metabolism [11]: metabolite_detected
Drug metabolism (Mus musculus [12]): metabolite_detected
Drug metabolism (Liver microsome [13]): metabolite_detected
solubility thermodynamic [6]: < 4 µM
Ratio Ki (Homo sapiens): 1.62
SMILES: C[C@H](NC(=O)COc1cc(C(F)(F)F)c2c(-c3ccccc3)nn(C)c2n1)c1ccccc1

Ratio Ki (Homo sapiens): 1.67
SMILES: CC(NC(=O)COc1cc(C(F)(F)F)c2c(-c3ccccc3)nn(C)c2n1)c1cccnc1 (racemic)

Ratio Ki (Homo sapiens): 1.73
SMILES: COc1ccccc1C(C)NC(=O)COc1cc(C(F)(F)F)c2c(-c3ccccc3)nn(C)c2n1 (racemic)

fraction unbound [20]: 0.04
IC50 (Cytochrome P450 2C9): > 20 µM
half-life [14]: 30 min
clearance [15]: 20 mL/min/kg
log(permeability) [21]: -4.1
bioavailability [16]: 21%
IC50 (Cytochrome P450 3A4): > 20 µM
microsomal CLint [7]: 603 µL/min/mg
logP [5]: 4.2
fraction unbound [22]: < 0.01
microsomal CLint [23]: 433 µL/min/mg
Vd [17]: 0.5 L/kg
Fu (Plasma): < 1%
microsomal CLint [24]: 330 µL/min/mg
AUC/dose (Blood [18]): 371 nM·h
Cmax/dose (Blood [19]): 300 nM
solubility thermodynamic [6]: < 4 µM
IC50 (Cytochrome P450 2D6): > 20 µM
SMILES: Cc1n[nH]c(C)c1[C@H](C)NC(=O)COc1cc(C(F)(F)F)c2c(-c3ccccc3)nn(C)c2n1

Ki [1]: 660 nM
Ki (Orexin receptor type 2 [2]; read-out: Ki): 367 nM
microsomal CLint [7]: 924 µL/min/mg
logP [5]: 3.5
solubility thermodynamic [6]: 40 µM (≈ 18.2 µg/mL)
SMILES: C[C@H](NC(=O)COc1cc(C(F)(F)F)c2c(-c3ccccn3)nn(C)c2n1)c1ccccc1
